The text below walks through data of publication PMC5665643, “CHIP as a membrane-shuttling proteostasis sensor” (eLife, 2017).

The subject of assay [1] is EGFP-CHIP-K30A; type III phosphatidylinositol-4 kinases (PI4KIII). Briefly: Undocking of EGFP-CHIP-K30A from membranes by PI4KIII inhibitors. The class given is cell-based, murine. The settings on record: same cells followed upon addition of inhibitor; ***p<0.001, t-test; N = 3. The text has this:
Phospholipase D inhibitors FIPI, VU0155069 and CAY10594 were purchased from Caymen Chemicals (Ann Arbor, MI), wortmannin from Enzo (Farmingdale, NY), PI4KIIIβ inhibitor IN-10 from MedChem Express (Monmouth Junction, NJ), HSP70 inhibitor VER-155008 from Sigma-Aldrich (St. Louis, MO), HSP90 inhibitor 17-(Allylamino)−17-demethoxygeldanamycin (17-AAG) from Biomol (Germany). 1,2-dioleoyl-sn-glycero-3-phosphocholine (DOPC) and 1,2-dipalmitoyl-sn-glycero-3-phosphate (phosphatidic acid, PA) were from Avanti Polar Lipids (Alabaster, AL), 1,2-dipalmitoyl-sn-glycero-3-phosphoinositol-4-phosphate (phosphadtidylinositol-4-phosphate, PI4P) was from Echelon Bioscience (Salt Lake City, UT). All other chemicals were from Sigma-Aldrich if not indicated otherwise. […]
For microscopy analysis of CHIP localization, samples were not fixed. […] For quantification, fields of view were chosen randomly. […]
Membrane localization and Golgi morphology were analyzed manually using ImageJ from following numbers of cells (average of at least three independent experiments): 92 (Figure 1a), 142 (Figure 1d), 90 (Figure 1—figure supplement 1b), 125 (Figure 1—figure supplement 1c), 149 (Figure 1—figure supplement 1d), 84 (Figure 3c), 130 (Figure 5a), 206 (Figure 5g), 240 (Figure 5h), 93 (Figure 5—figure supplement 1d), and 137 (Figure 5—figure supplement 1j). […]

In the next assay the test system is PI4KIII. The settings on record: at higher concentrations; ref Nakanishi et al., 1995; cited from earlier work.

As for `COC[C@H]1OC(=O)c2coc3c2[C@@]1(C)C1=C(C3=O)[C@@H]2CCC(=O)[C@@]2(C)C[C@H]1OC(C)=O` [wortmannin], the “undocking of EGFP-CHIP-K30A from cellular membranes, wortmannin” value in assay [1] is given as “causes an acute undocking of EGFP-CHIP-K30A from cellular membranes”. The PI4KIII inhibition entry in the assay with PI4KIII is recorded as “inhibits PI4KIII if used at higher concentrations”.
